Assay results: PMC11992225, “Antibacterial compounds against non-growing and intracellular bacteria” (npj Antimicrobials and Resistance, 2025)
“And” between values parts separate entries of the source, which are not always exact repeats. Equal values may be shown once.

Tests used:
non-growing UPEC CFT073 = assay: Dose-dependent killing analysis (CFU spot-plating) of stationary-phase UPEC; assay type: cell-based, Escherichia coli; conditions: individual replicates
In short: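 Killing assessed by CFU counts: overnight 37 °C LB agar spot plates (10 μl drops of 10-fold PBS dilutions) scored at the lowest dilution with distinct colonies. Samples were compound-treated non-growing UPEC CFT073, 200 μl per well. Performed as three biological replicates.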

[1] = test system: non-growing S. aureus DSM2569; assay: Dose-dependent killing analysis (CFU spot-plating) of stationary-phase S. aureus; assay type: cell-based, Staphylococcus aureus; conditions: for log10(CFU/ml) after treatment: S. aureus, individual replicates
In short: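 Survival was scored as CFU after overnight growth at 37 °C on LB agar, using spots from 10-fold PBS dilutions of treated cultures. Non-growing S. aureus DSM2569 had been exposed to compound for 24 h in 1:4 CA-MHB, pH 7.4. Three biological replicates were run.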

[2] = test system: non-growing P. aeruginosa DSM1117; assay: Dose-dependent killing analysis (CFU spot-plating) of stationary-phase P. aeruginosa; assay type: cell-based, Pseudomonas aeruginosa; conditions: P. aeruginosa; for log10(CFU/ml) after treatment: individual replicates
In short: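 Viability by CFU: samples serially diluted 10-fold in PBS, spotted on LB agar, grown overnight at 37 °C, and colonies counted at the lowest resolvable dilution. Non-growing P. aeruginosa DSM1117 had been dosed for 24 h in 1:4 CA-MHB (pH 7.4); three biological replicates.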

CCCCCCCCN=c1ccn(CCCCCCCCCCn2ccc(=NCCCCCCCC)cc2)cc1 [Octenidine]
log10(CFU/ml) after treatment (non-growing UPEC CFT073; E. coli in 1:4 CA-MHB (pH 7.4), concentration 0.25): 9.255 log10(CFU/ml) and 9.041 log10(CFU/ml) and 8.954 log10(CFU/ml)
log10(CFU/ml) after treatment (non-growing UPEC CFT073; E. coli in 1:4 CA-MHB (pH 7.4), concentration 0.5): 9.041 log10(CFU/ml) and 9.176 log10(CFU/ml) and 9.301 log10(CFU/ml)
log10(CFU/ml) after treatment (non-growing UPEC CFT073; E. coli in 1:4 CA-MHB (pH 7.4), concentration 1): 9.146 log10(CFU/ml) and 9.204 log10(CFU/ml) and 9.041 log10(CFU/ml)
log10(CFU/ml) after treatment (non-growing UPEC CFT073; E. coli in 1:4 CA-MHB (pH 7.4), concentration 2.5): 9.000 log10(CFU/ml) and 8.903 log10(CFU/ml) and 8.778 log10(CFU/ml)
log10(CFU/ml) after treatment (non-growing UPEC CFT073; E. coli in 1:4 CA-MHB (pH 7.4), concentration 5): 8.000 log10(CFU/ml) (2×) and 8.146 log10(CFU/ml)
log10(CFU/ml) after treatment (non-growing UPEC CFT073; E. coli in LPM (pH 5.5), concentration 0.25): 7.301 log10(CFU/ml) and 7.568 log10(CFU/ml) and 7.886 log10(CFU/ml)
log10(CFU/ml) after treatment (non-growing UPEC CFT073; E. coli in LPM (pH 5.5), concentration 0.5): 7.580 log10(CFU/ml) and 7.447 log10(CFU/ml) and 7.881 log10(CFU/ml)
log10(CFU/ml) after treatment (non-growing UPEC CFT073; E. coli in LPM (pH 5.5), concentration 1): 7.447 log10(CFU/ml) and 7.663 log10(CFU/ml) and 7.778 log10(CFU/ml)
log10(CFU/ml) after treatment (non-growing UPEC CFT073; E. coli in LPM (pH 5.5), concentration 2.5): 7.491 log10(CFU/ml) and 7.633 log10(CFU/ml) and 7.875 log10(CFU/ml)
log10(CFU/ml) after treatment (non-growing UPEC CFT073; E. coli in LPM (pH 5.5), concentration 5): 7.380 log10(CFU/ml) and 7.663 log10(CFU/ml) and 7.863 log10(CFU/ml)
log10(CFU/ml) after treatment ([1]; concentration 0.1): 8.505 log10(CFU/ml) and 8.653 log10(CFU/ml) and 8.820 log10(CFU/ml)
log10(CFU/ml) after treatment ([1]; concentration 0.5): 8.114 log10(CFU/ml) and 8.380 log10(CFU/ml) and 8.643 log10(CFU/ml)
log10(CFU/ml) after treatment ([1]; concentration 2.5): 6.322 log10(CFU/ml) and 7.690 log10(CFU/ml) and 8.255 log10(CFU/ml)
reduction of non-growing S. aureus ([1]; at 10 µM, 24 h treatment): below the limit of detection
log10(CFU/ml) after treatment ([2]; concentration 0.1): 10.204 log10(CFU/ml) and 9.447 log10(CFU/ml) and 9.415 log10(CFU/ml)
killing, average Δlog10(CFU/ml) ([2]; concentration 0.1, vs CFU before treatment): -0.305 log10(CFU/ml)
log10(CFU/ml) after treatment ([2]; concentration 0.5): 9.146 log10(CFU/ml) and 9.322 log10(CFU/ml) and 9.255 log10(CFU/ml)
killing, average Δlog10(CFU/ml) ([2]; concentration 0.5, vs CFU before treatment): 0.143 log10(CFU/ml)
log10(CFU/ml) after treatment ([2]; concentration 2.5): 9.230 log10(CFU/ml) (2×) and 9.322 log10(CFU/ml)
killing, average Δlog10(CFU/ml) ([2]; concentration 2.5, vs CFU before treatment): 0.123 log10(CFU/ml)
killing, average Δlog10(CFU/ml) ([2]; drug concentration 10): 0.517 log10(CFU/ml)
